According to patent EP0279757A1, “Kit for use as an agent for the selective destruction of transformed cells” (priority 1987, dated 1988):

What was measured:
Assay type in all cases: cell-based
cellules transformées = assay: Selective destruction of transformed cells by micro-injection into one target cell followed by activation at 400 nm; settings: set of 100 transformed cells, activation at 400 nm for 5 to 10 minutes
Excerpt: Pour être utilisée conformément à l'objectif visé, la susbtance (a) doit être acheminée par toute technique appropriée dans au moins l'une des cellules transformées à détruire, à partir de laquelle elle passe de manière spécifique dans les autres cellules transformées du même site, par l'intermédiaire des "gap junctions". La technique préférée actuellement est la micro-injection, bien connue de l'homme du métier et décrite en détail dans l'article de Cancer Res. cité plus haut.
Dans la pratique, il apparaît avantageux de micro-injecter la substance (a) ou des solutions salines (par exemple en milieu physiologique) de la substance (a), à raison d'un volume pouvant ne pas dépasser environ 10% par rapport au volume de la cellule-cible, par des micro-injections fractionnées et espacées entre elles, par exemple à des intervalles de 10 minutes, ou par une micro-injection en continu.
Il est préférable de respecter une attente entre la dernière micro-injection ou la fin de la micro-injection en continu et l'entrée en fonction du moyen pour l'activation de la susbtance toxique (a), afin que le passage de cette dernière dans l'ensemble des cellules transformées du site traité soit effectif. […]

[1] = tested on: cellules BALB/c 3T3 transfectées par pEJ-ras-H (cellules transformées); assay: Killing of transformed cells by micro-injection followed by near-UV irradiation (400 nm); settings: micro-injection into transformed cells, irradiation at a frequency close to UV; checked by Trepan blue staining or microscopy
Excerpt: Cet exemple concerne la destruction de cellules transformées, par micro-injection de Lucifer Yellow CH, suivie d'une irradiation à 400 nm.
Pour la production de cellules transformées, on a utilisé des cellules BALB/c 3T3, ce système de transformation assurant la production in situ de cellules transformées sur une couche mono-cellulaire normale, et simule ainsi la cancérogenèse in vivo.
Des cellules BALB/c 3T3 ont été transfectées par un oncogène activé que l'on a isolé d'un carcinome de vessie humaire, le pEJ-ras-H; par cette opération, on a obtenu des cellules transformées. […] Lorsque de nombreuses cellules sont tuées dans un foyer transformé, le foyer entier se décolle du fond de la boîte de Pétri. L'élimination de cellules se vérifie habituellement par coloration au "Trepan blue" mais peut également être confirmée par observation attentive au microscope : ces cellules ne montrent pas de capacité de prolifération; un grand nombre d'entre elles sont décollées.

[2] = tested on: cellules épithéliales de foie de rat transformées (IAR 27 ou IAR 6-1) et non transformées (IAR 20); assay: Co-culture of transformed and non-transformed cells: micro-injection, dye diffusion and killing after near-UV exposure
Excerpt: On a utilisé aussi des cellules épithéliales de foie de rat transformées et non transformées. Puisqu'à l'heure actuelle, il n'existe pas de mé-thode d'induction in situ de foyer épithélial transformée par des cancé-rogènes, on a cocultivé articifiellement des cellules épithéliales de foie de rat transformées et non transformées, de sorte que les deux types de cellules puissent être en contact. Lorsque les cellules transformées (IAR 27 ou IAR 6-1) sont cultivées avec des cellules non transformées (IAR 20), la frontière entre les deux types de cellules est clairement visible à cause de la différence de leur aspect morphologique.

[3] = tested on: foyers transformés de cellules BALB/c 3T3; assay: Stimulation of gap junction communication by an exogenous compound and its effect on selective elimination
Protocol: L'efficacité d'élimination a également été augmentée par stimulation de la communication des "gap junctions" par un composé exogène : après addition de dibutyryl c-AMP (1mM) dans une boîte de Pétri qui contient des foyers transformés de cellules BALB/c 3T3, on a observé que les communications intercellulaires sont stimulées dans les foyers transformés et dans la monocouche non transformée; cependant, les deux types de cellules ne communiquent pas entre eux.

Compound	destruction de cellules transformées (cellules transformées)	élimination sélective des cellules transformées [1]	mort des cellules-cibles ([2]; after exposure to near-UV radiation)	diffusion du colorant ([2]; micro-injection in co-culture of IAR 27 or IAR 6-1 with IAR 20)	élimination sélective dans les cellules transformées ([3]; 1mM added to the Petri dish, elimination by Lucifer Yellow CH micro-injection and irradiation)	communications intercellulaires ([3]; 1mM added to the Petri dish, in transformed foci and in the non-transformed monolayer, the two cell types do not communicate with each other)	spécificité de communication intercellulaire ([3]; prolonged treatment, transformed phenotypes then began to disappear)
Lucifer Yellow CH	destruction sélective complète	on a pu les tuer	la mort des cellules	diffusion sélective du colorant dans les cellules du même type			
CCCC(=O)Nc1ncnc2c1ncn2[C@@H]1O[C@@H]2COP(=O)(O)O[C@H]2[C@H]1OC(=O)CCC [dibutyryl c-AMP]					plus facilement	stimulées	suppression de la spécificité de communication
